Source: US10196425B2, “Peptide compositions” (RHYTHM PHARMACEUTICALS, INC., priority 2013, dated 2019)
Read-outs that look alike come from different tables or passages of the source. Bridge positions count the residues as written; N and C are the ends. Square brackets hold non-standard residues; d marks the D form. Peptide text beside a SMILES is read from it. dPhe(4-F) = N[C@H](Cc1ccc(F)cc1)C(=O)O; Pen = CC(C)(S)[C@H](N)C(=O)O; hCys = N[C@@H](CCS)C(=O)O

How the values were obtained:
Format in all cases: cell-based
[1] = target: MC1R (Homo sapiens, UniProt Q01726); test: cAMP assay (β-galactosidase reporter, cAMP Hunter), MC1R; conditions: for Ratios of EC50 values MC ¼: EC50(MC1R)/EC50(MC4R)
Excerpt: (§1) cAMP Accumulation Measurement Via a β-Galactosidase (β-Gal) Reporter System
(§2) A chemiluminescence readout system that uses an enzyme fragment complementation (EFC) system with β-galactosidase (β-Gal) as the functional reporter system was used. This assay system for various melanocortin receptor systems is commercially available (cAMP Hunter GPCR assay system, Discoverx Corp, Fremont, Calif.). This assay utilizes the β-Gal enzyme that is split into two complementary portions; EA for Enzyme Acceptor and ED for Enzyme Donor. In the assay, the ED portion fused to cAMP is made to compete with cAMP generated by cells for binding to a cAMP-specific antibody. The EA is then added to form active β-Gal with any unbound ED-cAMP.
(§3) Briefly, 10000 cells per well are plated overnight and each well (cells incubated with 10 μl assay buffer) is then incubated with 4× serial concentration of the test compound in the cell assay buffer (5 μL) and cAMP antibody reagent (5 μL) for 30 min at 37° C. The cell lysis buffer (20 μL) containing ED-cAMP coupled enzyme fragment and the reporter substrate (Emerald II-Galacton Star, 5:1) is then added and incubated for 60 min at room temperature. Next, 20 μL of EA β-Gal fragment reagent is added.

[2] = target: MC4R (Homo sapiens, UniProt P32245); test: cAMP assay (β-galactosidase reporter, cAMP Hunter), MC4R
Excerpt: as §1, §2, §3

[3] = target: MC3R (Homo sapiens, UniProt P41968); test: cAMP assay (β-galactosidase reporter, cAMP Hunter), MC3R; conditions: for Ratios of EC50 values MC ¾: EC50(MC3R)/EC50(MC4R)
Excerpt: as §1, §2, §3

[4] = target: MC5R (Homo sapiens, UniProt P33032); test: cAMP assay (β-galactosidase reporter, cAMP Hunter), MC5R; conditions: for Ratios of EC50 values MC 5/4: EC50(MC5R)/EC50(MC4R)
Excerpt: as §1, §2, §3

[5] = agonist cAMP stimulation, read-out: cAMP Assay (EC-50) MC1R
[6] = agonist cAMP stimulation, read-out: cAMP Assay (EC-50) MC4R
[7] = agonist cAMP stimulation, in uM, read-out: cAMP Assay (EC-50) MC3R
[8] = agonist cAMP stimulation, read-out: cAMP Assay (EC-50) MC5R
[9] = agonist cAMP stimulation, read-out: cAMP Assay (EC-50) MC3R

Chain of MC3R (P41968 whole entry): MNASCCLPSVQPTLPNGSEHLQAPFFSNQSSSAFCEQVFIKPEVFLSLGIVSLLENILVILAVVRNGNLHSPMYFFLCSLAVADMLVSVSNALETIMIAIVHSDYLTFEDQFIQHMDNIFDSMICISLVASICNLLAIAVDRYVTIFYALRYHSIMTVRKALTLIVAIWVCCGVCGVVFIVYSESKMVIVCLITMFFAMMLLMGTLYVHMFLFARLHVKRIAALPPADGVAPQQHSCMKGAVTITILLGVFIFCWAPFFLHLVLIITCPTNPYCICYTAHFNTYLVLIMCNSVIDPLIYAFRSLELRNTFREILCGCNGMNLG
Chain of MC5R (P33032 whole entry): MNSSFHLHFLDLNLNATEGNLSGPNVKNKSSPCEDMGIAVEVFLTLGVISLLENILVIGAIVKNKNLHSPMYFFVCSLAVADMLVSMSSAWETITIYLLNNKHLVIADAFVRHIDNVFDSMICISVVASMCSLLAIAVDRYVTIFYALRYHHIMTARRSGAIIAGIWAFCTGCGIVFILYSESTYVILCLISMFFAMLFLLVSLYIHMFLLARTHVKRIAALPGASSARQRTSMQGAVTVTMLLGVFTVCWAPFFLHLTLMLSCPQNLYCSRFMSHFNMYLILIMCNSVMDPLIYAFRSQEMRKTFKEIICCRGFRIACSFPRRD
Chain of MC4R (P32245 whole entry): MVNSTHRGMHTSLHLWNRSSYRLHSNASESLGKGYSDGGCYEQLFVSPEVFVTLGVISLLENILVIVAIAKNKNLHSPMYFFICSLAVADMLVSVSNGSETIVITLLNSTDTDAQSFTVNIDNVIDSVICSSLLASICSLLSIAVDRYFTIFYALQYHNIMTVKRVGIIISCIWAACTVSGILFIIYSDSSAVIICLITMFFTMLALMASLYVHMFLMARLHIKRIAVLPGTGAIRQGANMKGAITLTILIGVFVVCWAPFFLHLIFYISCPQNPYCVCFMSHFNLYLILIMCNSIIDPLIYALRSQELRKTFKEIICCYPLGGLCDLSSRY
Chain of MC1R (Q01726 whole entry): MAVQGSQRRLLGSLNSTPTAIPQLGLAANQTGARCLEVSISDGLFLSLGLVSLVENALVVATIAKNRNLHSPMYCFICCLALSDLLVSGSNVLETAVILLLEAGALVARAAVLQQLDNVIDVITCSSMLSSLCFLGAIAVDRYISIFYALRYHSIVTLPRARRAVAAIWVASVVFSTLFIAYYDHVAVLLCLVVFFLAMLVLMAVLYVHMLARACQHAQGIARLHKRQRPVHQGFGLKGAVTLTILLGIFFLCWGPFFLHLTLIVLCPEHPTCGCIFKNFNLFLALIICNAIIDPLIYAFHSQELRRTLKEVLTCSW

| Structure (SMILES) | Ratios of EC50 values MC ¼ [1] | Ratios of EC50 values MC ¾ [3] | Ratios of EC50 values MC 5/4 [4] | EC50 [1, 5] [nM] | EC50 [2, 6] [nM] | EC50 [3, 7] [µM] | EC50 [4, 8] [nM] | EC50 [3, 9] [µM] | EC50 [1] [nM] | EC50 [2] [nM] | EC50 [3] [µM] | EC50 [4] [nM] |
| --- | --- | --- | --- | --- | --- | --- | --- | --- | --- | --- | --- | --- |
| CC(=O)N[C@@H](CCCNC(=N)N)C(=O)N[C@H]1CSSC[C@@H](C(N)=O)NC(=O)[C@H](Cc2c[nH]c3ccccc23)NC(=O)[C@H](CCCNC(=N)N)NC(=O)[C@@H](Cc2ccccc2)NC(=O)[C@H](Cc2cn(C)cn2)NC(=O)[C@@H](C)NC1=O [Compound 6, Ac-Arg-cyclo[Cys-D-Ala-His(1-Me)-D-Phe-Arg-Trp-Cys]-NH2] | 40 | 6 | 662 | – | – | – | – | – | 30.4 | 0.7 | 0.0043 | 467 |
| CC(=O)N[C@@H](CCCNC(=N)N)C(=O)N[C@H]1CSSC[C@@H](C(N)=O)NC(=O)[C@H](Cc2c[nH]c3ccccc23)NC(=O)[C@H](CCCNC(=N)N)NC(=O)[C@@H](Cc2ccccc2)NC(=O)[C@H](Cc2c[nH]c3ccccc23)NC(=O)[C@@H](C)NC1=O [Compound 7, Ac-Arg-cyclo[Cys-D-Ala-Trp-D-Phe-Arg-Trp-Cys ]-NH2] (Ac-RC[dA]W[dF]RWC-NH2; disulfide 2-8) | 8 | >290 | 7 | 273 | 34 | > 10 | 259 | – | – | – | – | – |
| CC(=O)N[C@@H](CCCNC(=N)N)C(=O)N[C@H]1CSSC[C@@H](C(N)=O)NC(=O)[C@H](Cc2c[nH]c3ccccc23)NC(=O)[C@H](CCCNC(=N)N)NC(=O)[C@@H](Cc2ccccc2)NC(=O)[C@@H]2CCCN2C(=O)[C@@H](C)NC1=O [Compound 13, Ac-Arg-cyclo[Cys-D-Ala-Pro-D-Phe-Arg-Trp-Cys]-NH2] (Ac-RC[dA]P[dF]RWC-NH2; disulfide 2-8) | 5 | >200 | 13 | 280 | 56 | > 10 | 707 | – | – | – | – | – |
| CC(=O)N[C@@H](CCCNC(=N)N)C(=O)N[C@H]1CCSSC[C@@H](C(N)=O)NC(=O)[C@H](Cc2c[nH]c3ccccc23)NC(=O)[C@H](CCCNC(=N)N)NC(=O)[C@@H](Cc2ccccc2)NC(=O)[C@@H](C)NC1=O [Compound 16, Ac-Arg-cyclo[hCys-D-Ala-D-Phe-Arg-Trp-Cys]-NH2] (Ac-R[hCys][dA][dF]RWC-NH2; disulfide 2-7) | 120 | 420 | >1338 | 888 | 7.5 | – | > 10000 | 3.16 | – | – | – | – |
| CC(=O)N[C@@H](CCC(=O)O)C(=O)N[C@H]1CSSC[C@@H](C(N)=O)NC(=O)[C@H](Cc2c[nH]c3ccccc23)NC(=O)[C@H](CCCNC(=N)N)NC(=O)[C@@H](Cc2ccccc2)NC(=O)[C@H](Cc2c[nH]cn2)NC(=O)[C@H](C)NC1=O [Compound 22, Ac-Glu-cyclo[Cys-Ala-His-D-Phe-Arg-Trp-Cys]-NH2] (Ac-ECAH[dF]RWC-NH2; disulfide 2-8) | >3 | >20 | >2563 | – | – | – | – | – | 1.7 | < 0.5 | 0.0099 | 1280 |

Continued, in another order:

| Ratios of EC50 values MC ¼ [1] | Ratios of EC50 values MC ¾ [3] | Ratios of EC50 values MC 5/4 [4] | EC50 [1, 5] [nM] | EC50 [2, 6] [nM] | EC50 [3, 7] [µM] | EC50 [4, 8] [nM] | EC50 [3, 9] [µM] | Structure (SMILES) | EC50 [1] [nM] | EC50 [2] [nM] | EC50 [3] [µM] | EC50 [4] [nM] |
| --- | --- | --- | --- | --- | --- | --- | --- | --- | --- | --- | --- | --- |
| 40 | 5 | 155 | 71 | 1.6 | – | 255 | 0.0086 | CC(=O)N[C@@H](CCCNC(=N)N)C(=O)N[C@H]1CSSC[C@@H](C(N)=O)NC(=O)[C@H](Cc2c[nH]c3ccccc23)NC(=O)[C@H](CCCNC(=N)N)NC(=O)[C@@H](Cc2ccccc2)NC(=O)[C@H](CCC(N)=O)NC(=O)[C@@H](C)NC1=O [Compound 8, Ac-Arg-cyclo[Cys-D-Ala-Gln-D-Phe-Arg-Trp-Cys]-NH2] (Ac-RC[dA]Q[dF]RWC-NH2; disulfide 2-8) | – | – | – | – |
| 90 | 30 | 530 | 248 | 3 | – | 1490 | 0.081 | CC(=O)N[C@@H](CCCNC(=N)N)C(=O)N[C@H]1CSSC[C@@H](C(N)=O)NC(=O)[C@H](Cc2c[nH]c3ccccc23)NC(=O)[C@H](CCCNC(=N)N)NC(=O)[C@@H](Cc2ccccc2)NC(=O)[C@H](CC(N)=O)NC(=O)[C@@H](C)NC1=O [Compound 9, Ac-Arg-cyclo[Cys-D-Ala-Asn-D-Phe-Arg-Trp-Cys]-NH2] (Ac-RC[dA]N[dF]RWC-NH2; disulfide 2-8) | – | – | – | – |
| 7 | >400 | 12 | 169 | 24 | > 10 | 283 | – | CC(=O)N[C@@H](CCCNC(=N)N)C(=O)N[C@H]1CSSC[C@@H](C(N)=O)NC(=O)[C@H](Cc2c[nH]c3ccccc23)NC(=O)[C@H](CCCNC(=N)N)NC(=O)[C@@H](Cc2ccc(F)cc2)NC(=O)[C@@H]2CCCN2C(=O)[C@@H](C)NC1=O [Compound 14, Ac-Arg-cyclo[Cys-D-Ala-Pro-D-Phe(p-F)-Arg-Trp-Cys]-NH2] (Ac-RC[dA]P[dPhe(4-F)]RWC-NH2; disulfide 2-8) | – | – | – | – |
| 15 | 3.8 | 161 | 4 | 0.26 | – | 42 | 0.001 | CC(=O)N[C@@H](CCCNC(=N)N)C(=O)N[C@H]1CCSSC[C@@H](C(N)=O)NC(=O)[C@H](Cc2c[nH]c3ccccc23)NC(=O)[C@H](CCCNC(=N)N)NC(=O)[C@@H](Cc2ccccc2)NC(=O)[C@H](C)NC1=O [Compound 15, Ac-Arg-cyclo[hCys-Ala-D-Phe-Arg-Trp-Cys]-NH2] (Ac-R[hCys]A[dF]RWC-NH2; disulfide 2-7) | – | – | – | – |
| 15 | 17 | 159 | 195 | 13.7 | – | 2180 | 0.233 | CC(=O)N[C@@H](CCCNC(=N)N)C(=O)N[C@H]1CCSSC(C)(C)[C@@H](C(N)=O)NC(=O)[C@H](Cc2c[nH]c3ccccc23)NC(=O)[C@H](CCCNC(=N)N)NC(=O)[C@@H](Cc2ccccc2)NC(=O)[C@@H](C)NC1=O [Compound 17, Ac-Arg-cyclo[hCys-D-Ala-D-Phe-Arg-Trp-Pen]-NH2] (Ac-R[hCys][dA][dF]RW[Pen]-NH2; disulfide 2-7) | – | – | – | – |
